Measurements reported in PMC9322767, “Novel Unspecific Peroxygenase from Truncatella angustata Catalyzes the Synthesis of Bioactive Lipid Mediators” (Microorganisms, 2022).
Counter-ions that a name gives are not always drawn. Like-named read-outs stand apart in the source and are kept apart here.

Key:
TanUPO [1] = conditions: read-out: apparent kinetic parameters; co-substrate H2O2 2 mM; McIlvaine buffer pH 4.5
TanUPO [2] = test system: T1, TanUPO; experiment: HPLC-ELSD of […],15-EET formation; type: biochemical, Truncatella angustata; conditions: co-substrate H2O2 (from glucose/glucose oxidase); 20 mM phosphate pH 7.0, 30 °C, 20% (v/v) acetone; sigmoidal kinetics (Hill)
T1 construct: native wild-type purified from culture of own fungal isolate; glycosylated heme-thiolate protein

| Km (TanUPO [1]) [µM] | Structure (SMILES) | Km (TanUPO [2]) [µM] |
| --- | --- | --- |
| 257 | CCn1c(=NN=c2sc3cc(S(=O)(=O)O)ccc3n2CC)sc2cc(S(=O)(=O)O)ccc21 [ABTS, 2,2′-azino-di(3-ethylbenzthiazoline-6-sulfonate) di-ammonium salt] |  |
|  | CCCCC/C=C\C/C=C\C/C=C\C/C=C\CCCC(=O)O [arachidonic acid, (5Z,8Z,11Z,14Z)-5,8,11,14-eicosatetraenoic acid] | ~200 |
